Measurements: patent publication US20170190671A1, “BIS(ARYL)CATECHOL DERIVATIVES AS HERBICIDES” (E I DU PONT DE NEMOURS AND COMPANY, priority 2014, published 2017)

Key:
Assay type in all cases: in vivo
[1] = system: rice (Oryza sativa); assay: Test B flooded paddy; conditions: Oryza sativa, 336 h; 250 g ai/ha, Flood, 13 to 15 days, scale 0 (no effect) to 100 (complete control); read-out: Plant response rating, Rice
Summary of the method: (§1)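 Greenhouse pots flooded to 3 cm above soil at time of treatment received compound via the water, which stayed at that level.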

[2] = system: barnyardgrass (Echinochloa crus-galli); assay: Test B flooded paddy; conditions: Echinochloa crus-galli, 336 h; 250 g ai/ha, Flood, 13 to 15 days, scale 0 (no effect) to 100 (complete control); read-out: Plant response rating, Barnyardgrass
Summary of the method: as §1

[3] = system: sedge, umbrella (small-flower umbrella sedge, Cyperus difformis); assay: Test B flooded paddy; conditions: Cyperus difformis, 336 h; 250 g ai/ha, Flood, 13 to 15 days, scale 0 (no effect) to 100 (complete control); read-out: Plant response rating, Sedge, Umbrella
Summary of the method: as §1

[4] = system: ducksalad (Heteranthera limosa); assay: Test B flooded paddy; conditions: Heteranthera limosa, 336 h; 250 g ai/ha, Flood, 13 to 15 days, scale 0 (no effect) to 100 (complete control); read-out: Plant response rating, Ducksalad
Summary of the method: as §1

[5] = system: barnyardgrass (Echinochloa crus-galli); assay: Test A preemergence; conditions: Echinochloa crus-galli, pre-emergence, 240 h, 0 to 100 scale (0 no effect, 100 complete control), read-out: Barnyardgrass plant response rating
Summary of the method: (§2)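 Scoring: eye-based comparison with untreated controls, 0 for no effect through 100 for complete control, at about day 10. Treatments: directed soil spray preemergence; foliar spray postemergence on 2–10 cm plants at the one- to two-leaf stage. Medium: loam soil with sand.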

[6] = system: kochia (Kochia scoparia); assay: Test A preemergence; conditions: Bassia scoparia, pre-emergence, 240 h, 0 to 100 scale (0 no effect, 100 complete control), read-out: Kochia plant response rating
Summary of the method: as §2

[7] = system: Italian ryegrass (Lolium multiflorum); assay: Test A preemergence; conditions: Lolium multiflorum, pre-emergence, 240 h, 0 to 100 scale (0 no effect, 100 complete control), read-out: Ryegrass, Italian plant response rating
Summary of the method: as §2

[8] = system: pigweed (Amaranthus retroflexus); assay: Test A preemergence; conditions: Amaranthus retroflexus, pre-emergence, 240 h, 0 to 100 scale (0 no effect, 100 complete control), read-out: Pigweed plant response rating
Summary of the method: as §2

[9] = system: ragweed (common ragweed, Ambrosia elatior); assay: Test A preemergence; conditions: Ambrosia artemisiifolia, pre-emergence, 240 h, 0 to 100 scale (0 no effect, 100 complete control), read-out: Ragweed plant response rating
Summary of the method: as §2

[10] = system: giant foxtail (Setaria faberii); assay: Test A preemergence; conditions: Setaria faberi, pre-emergence, 240 h, 0 to 100 scale (0 no effect, 100 complete control), read-out: Foxtail, Giant plant response rating
Summary of the method: as §2

[11] = system: barnyardgrass (Echinochloa crus-galli); assay: Test A postemergence; conditions: Echinochloa crus-galli, post-emergence, 240 h, 0 to 100 scale, read-out: Plant response rating, Barnyardgrass
Summary of the method: as §2

[12] = system: kochia (Kochia scoparia); assay: Test A postemergence; conditions: Bassia scoparia, post-emergence, 240 h, 0 to 100 scale, read-out: Plant response rating, Kochia
Summary of the method: as §2

[13] = system: galium (catchweed bedstraw, Galium aparine); assay: Test A postemergence; conditions: Galium, post-emergence, 240 h, 0 to 100 scale, read-out: Plant response rating, Galium
Summary of the method: as §2

[14] = system: wheat (Triticum aestivum); assay: Test A postemergence; conditions: Triticum aestivum, post-emergence, 240 h, 0 to 100 scale, read-out: Plant response rating, Wheat
Summary of the method: as §2

[15] = system: Italian ryegrass (Lolium multiflorum); assay: Test A postemergence; conditions: Lolium multiflorum, post-emergence, 240 h, 0 to 100 scale, read-out: Plant response rating, Ryegrass, Italian
Summary of the method: as §2

[16] = system: blackgrass (Alopecurus myosuroides); assay: Test A postemergence; conditions: Alopecurus myosuroides, post-emergence, 240 h, 0 to 100 scale, read-out: Plant response rating, Blackgrass
Summary of the method: as §2

[17] = system: pigweed (Amaranthus retroflexus); assay: Test A postemergence; conditions: Amaranthus retroflexus, post-emergence, 240 h, 0 to 100 scale, read-out: Plant response rating, Pigweed
Summary of the method: as §2

[18] = system: ragweed (common ragweed, Ambrosia elatior); assay: Test A postemergence; conditions: Ambrosia artemisiifolia, post-emergence, 240 h, 0 to 100 scale, read-out: Plant response rating, Ragweed
Summary of the method: as §2

[19] = system: corn (Zea mays); assay: Test A postemergence; conditions: Zea mays, post-emergence, 240 h, 0 to 100 scale
Summary of the method: as §2

[20] = system: giant foxtail (Setaria faberii); assay: Test A postemergence; conditions: Setaria faberi, post-emergence, 240 h, 0 to 100 scale, read-out: Plant response rating, Foxtail, Giant
Summary of the method: as §2

FCc1cccc(Oc2ncc(Cl)cn2)c1Oc1ncc(Cl)cn1 [Compound 44]
plant injury at 250 g/ha [1]: 40%
pest or weed control at 250 g/ha [2]: 40%
pest or weed control at 250 g/ha [3]: 75%
pest or weed control at 250 g/ha [4]: 95%
pest or weed control at 31 g/ha ([5]; 31 g ai/ha): 20%
pest or weed control at 125 g/ha ([5]; 125 g ai/ha): 100%
pest or weed control at 31 g/ha ([6]; 31 g ai/ha): 60%
pest or weed control at 125 g/ha ([6]; 125 g ai/ha): 100%
pest or weed control at 31 g/ha ([7]; 31 g ai/ha): 0%
pest or weed control at 125 g/ha ([7]; 125 g ai/ha): 20%
pest or weed control at 31 g/ha ([8]; 31 g ai/ha): 100%
pest or weed control at 125 g/ha ([8]; 125 g ai/ha): 100%
pest or weed control at 31 g/ha ([9]; 31 g ai/ha): 0%
pest or weed control at 125 g/ha ([9]; 125 g ai/ha): 40%
pest or weed control at 31 g/ha ([10]; 31 g ai/ha): 90%
pest or weed control at 125 g/ha ([10]; 125 g ai/ha): 100%
pest or weed control at 31 g/ha ([11]; 31 g ai/ha): 20%
pest or weed control at 125 g/ha ([11]; 125 g ai/ha): 90%
pest or weed control at 31 g/ha ([12]; 31 g ai/ha): 50%
pest or weed control at 125 g/ha ([12]; 125 g ai/ha): 80%
pest or weed control at 31 g/ha ([13]; 31 g ai/ha): 70%
pest or weed control at 125 g/ha ([13]; 125 g ai/ha): 80%
plant injury at 31 g/ha ([14]; 31 g ai/ha): 20%
plant injury at 125 g/ha ([14]; 125 g ai/ha): 80%
pest or weed control at 31 g/ha ([15]; 31 g ai/ha): 20%
pest or weed control at 125 g/ha ([15]; 125 g ai/ha): 30%
pest or weed control at 31 g/ha ([16]; 31 g ai/ha): 40%
pest or weed control at 125 g/ha ([16]; 125 g ai/ha): 80%
pest or weed control at 31 g/ha ([17]; 31 g ai/ha): 30%
pest or weed control at 125 g/ha ([17]; 125 g ai/ha): 70%
pest or weed control at 31 g/ha ([18]; 31 g ai/ha): 20%
pest or weed control at 125 g/ha ([18]; 125 g ai/ha): 70%
Corn plant response rating (crop injury, 0 = no effect, 100 = complete kill) at 31 g/ha ([19]; 31 g ai/ha): 20%
Corn plant response rating (crop injury, 0 = no effect, 100 = complete kill) at 125 g/ha ([19]; 125 g ai/ha): 70%
pest or weed control at 31 g/ha ([20]; 31 g ai/ha): 10%
pest or weed control at 125 g/ha ([20]; 125 g ai/ha): 90%
